Results taken from US20060069132A1, “Azolecarboxamide herbicides” (priority 2004, published 2006).

Legend:
barnyardgrass [1] = test: Test B pre-/postemergence herbicide test; assay type: in vivo, Echinochloa crus-galli
In short: (§1)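 Species tested were Echinochloa crus-galli, Ipomoea coccinea, Xanthium strumarium and Oryza sativa, treated both before emergence and at the 1- to 4-leaf stage; rice and barnyardgrass were also tested under flooding at 2 leaves. Greenhouse incubation lasted 13–15 days before visual 0–100 scoring.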

Surinam grass = test: Test B pre-/postemergence herbicide test; assay type: in vivo, Urochloa decumbens; conditions: for Surinam Grass plant response rating: postemergence, visual rating
In short: (§2)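 Herbicidal effect was judged by eye on a 0–100 scale after plants stood 13 to 15 days in the greenhouse following pre- or postemergence treatment with surfactant-containing formulations.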

cocklebur = test: Test B pre-/postemergence herbicide test; assay type: in vivo, Xanthium strumarium
In short: as §1

large crabgrass = test: Test B pre-/postemergence herbicide test; assay type: in vivo, Digitaria sanguinalis
In short: as §2

giant foxtail = test: Test B pre-/postemergence herbicide test; assay type: in vivo, Setaria faberi
In short: as §2

lambsquarters = test: Test B pre-/postemergence herbicide test; assay type: in vivo, Chenopodium album; conditions: for Lambsquarters plant response rating: postemergence, visual rating
In short: as §2

morningglory = test: Test B pre-/postemergence herbicide test; assay type: in vivo, Ipomoea coccinea; conditions: for Morningglory plant response rating: postemergence, visual rating
In short: as §1

pigweed = test: Test B pre-/postemergence herbicide test; assay type: in vivo, Amaranthus retroflexus; conditions: for Pigweed plant response rating: postemergence, visual rating
In short: as §2

velvetleaf = test: Test B pre-/postemergence herbicide test; assay type: in vivo, Abutilon theophrasti; conditions: for Velvetleaf plant response rating: postemergence, visual rating
In short: as §2

blackgrass = test: Test B postemergence herbicide test; assay type: in vivo, Alopecurus myosuroides; conditions: scale 0 (no effect) to 100 (complete control); for Plant response rating, Blackgrass: Postemergence, 500 g ai/ha, visual rating after 13 to 15 days; for Blackgrass plant response rating: postemergence, 125 g ai/ha, visual rating
In short: (§3)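 Plants grow to 1- to 4-leaf stage (2–18 cm) for postemergence spraying, or to 2-leaf stage for the paddy test. Formulated compound is applied. Greenhouse holding lasts 13–15 days. Response is scored visually relative to controls, 0 no effect to 100 complete control; a dash means no result.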

wheat = test: Test B postemergence herbicide test; assay type: in vivo, Triticum aestivum; set-up: key to Wheat plant response rating: 0 = no effect, 100 = complete control; conditions: scale 0 (no effect) to 100 (complete control); for Plant response rating, Wheat: Postemergence, 500 g ai/ha, visual rating after 13 to 15 days; for Wheat plant response rating: postemergence, 125 g ai/ha, visual rating
In short: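 Visual ratings, 0 (no effect) to 100 (complete control), made versus controls after 13–15 d greenhouse. Paddy plants treated at 2-leaf stage; postemergence plants at 1- to 4-leaf stage, 2–18 cm tall.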

rice = test: Test B flooded paddy test; assay type: in vivo, Oryza sativa; conditions: 1000 g ai/ha, visual rating, scale 0 to 100 (0 no effect, 100 complete control), 13 to 15 days
In short: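 Treated at 2-leaf (paddy) or 1–4-leaf, 2–18 cm (postemergence); greenhouse 13–15 d; visual score vs control, 0 none to 100 complete control; dash = not tested.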

[2] = tested on: small flower umbrella sedge; test: Test B flooded paddy test; assay type: in vivo, Cyperus difformis; conditions: 1000 g ai/ha, visual rating, scale 0 to 100 (0 no effect, 100 complete control), 13 to 15 days
In short: as §3

ducksalad = test: Test B flooded paddy test; assay type: in vivo, Heteranthera limosa; conditions: 1000 g ai/ha, visual rating, scale 0 to 100 (0 no effect, 100 complete control), 13 to 15 days
In short: as §3

barnyardgrass [3] = test: Test B flooded paddy test; assay type: in vivo, Echinochloa crus-galli; conditions: 1000 g ai/ha, visual rating, scale 0 to 100 (0 no effect, 100 complete control), 13 to 15 days
In short: as §3

[4] = Postemergence, 500 g ai/ha, visual rating after 13 to 15 days, scale 0 (no effect) to 100 (complete control)
[5] = Preemergence, 500 g ai/ha, scale 0 to 100
[6] = postemergence, 125 g ai/ha, visual rating, scale 0 (no effect) to 100 (complete control)
[7] = preemergence, 125 g ai/ha, 0 to 100 scale, 0 is no effect, 100 is complete control
[8] = 125 g ai/ha, scale 0 (no effect) to 100 (complete control)

| SMILES | Plant response rating, Barnyardgrass (barnyardgrass [1]; [4]) | Barnyardgrass plant response rating (barnyardgrass [1]; [5]) | Barnyardgrass plant response rating (barnyardgrass [1]; [6]) | Plant response rating, Barnyardgrass (barnyardgrass [1]; [7]) | Plant response rating, Surinam Grass (Surinam grass; [4]) | Surinam Grass plant response rating (Surinam grass; [8]) | Plant response rating, Surinam Grass (Surinam grass; [7]) | Plant response rating, Cocklebur (cocklebur; [4]) | Cocklebur plant response rating (cocklebur; [6]) | Plant response rating, Cocklebur (cocklebur; [7]) | Plant response rating, Crabgrass, Large (large crabgrass; [4]) | Crabgrass, Large plant response rating (large crabgrass; [5]) | Crabgrass, Large plant response rating (large crabgrass; [6]) | Plant response rating, Crabgrass, Large (large crabgrass; [7]) | Plant response rating, Foxtail, Giant (giant foxtail; [4]) | Foxtail, Giant plant response rating (giant foxtail; [5]) | Foxtail, Giant plant response rating (giant foxtail; [6]) | Plant response rating, Foxtail, Giant (giant foxtail; [7]) | Plant response rating, Lambsquarters (lambsquarters; [4]) | Lambsquarters plant response rating (lambsquarters; [8]) | further results |
| --- | --- | --- | --- | --- | --- | --- | --- | --- | --- | --- | --- | --- | --- | --- | --- | --- | --- | --- | --- | --- | --- |
| CCn1nc(C(C)(C)C)cc1C(=O)Nc1ccc(F)c(C(=O)NCCF)c1 [Compound 60] | 10 | 100 | 10 | 50 | 20 | 10 | 10 | 70 | 40 | 0 | 20 | 100 | 10 | 90 | 20 | 100 | 10 | 40 | 90 | 80 | Cocklebur plant response rating (cocklebur; [5]): 0; Plant response rating, Lambsquarters (lambsquarters; [7]): 90; Plant response rating, Morningglory (morningglory; [4]): 20; Morningglory plant response rating (morningglory; [8]): 10; Plant response rating, Morningglory (morningglory; [7]): 10; Plant response rating, Pigweed (pigweed; [4]): 70; Pigweed plant response rating (pigweed; [8]): 70; Plant response rating, Pigweed (pigweed; [7]): 90; Plant response rating, Velvetleaf (velvetleaf; [4]): 60; Velvetleaf plant response rating (velvetleaf; [8]): 20; Plant response rating, Velvetleaf (velvetleaf; [7]): 10; Plant response rating, Blackgrass (blackgrass): 0; Blackgrass plant response rating (blackgrass): 0; Plant response rating, Wheat (wheat): 0; Wheat plant response rating (wheat): 0; Rice plant response rating (rice): 50; Sedge, Umbrella plant response rating [2]: 60; Ducksalad plant response rating (ducksalad): 70; Barnyardgrass plant response rating (barnyardgrass [3]): 60 |
| CCn1nc(C(C)(C)C)cc1C(=O)Nc1cccc(C(=O)NOC)c1 [Compound 67] | 10 | 80 | 10 | 0 | 10 | 10 | 0 | 70 | 0 | 0 | 10 | 20 | 10 | 0 | 10 | 10 | 10 | 0 | 60 | 40 | Cocklebur plant response rating (cocklebur; [5]): 0; Plant response rating, Lambsquarters (lambsquarters; [7]): 0; Plant response rating, Morningglory (morningglory; [4]): 10; Morningglory plant response rating (morningglory; [8]): 0; Plant response rating, Morningglory (morningglory; [7]): 0; Plant response rating, Pigweed (pigweed; [4]): 20; Pigweed plant response rating (pigweed; [8]): 0; Plant response rating, Pigweed (pigweed; [7]): 0; Plant response rating, Velvetleaf (velvetleaf; [4]): 10; Velvetleaf plant response rating (velvetleaf; [8]): 10; Plant response rating, Velvetleaf (velvetleaf; [7]): 0; Plant response rating, Blackgrass (blackgrass): 10; Blackgrass plant response rating (blackgrass): 10; Plant response rating, Wheat (wheat): 10; Wheat plant response rating (wheat): 10; Rice plant response rating (rice): 60; Sedge, Umbrella plant response rating [2]: 80; Ducksalad plant response rating (ducksalad): 80; Barnyardgrass plant response rating (barnyardgrass [3]): 60 |
| CCOC(=O)c1cccc(NC(=O)c2cc(C(C)(C)C)nn2CCF)c1 [Compound 79] | 40 | 10 | 30 | 0 | 40 | 30 | 0 | 80 | 80 | 0 | 30 | 0 | 20 | 0 | 40 | 10 | 30 | 10 | 80 | 70 | Cocklebur plant response rating (cocklebur; [5]): 0; Plant response rating, Lambsquarters (lambsquarters; [7]): 0; Plant response rating, Morningglory (morningglory; [7]): 0; Plant response rating, Pigweed (pigweed; [4]): 100; Pigweed plant response rating (pigweed; [8]): 70; Plant response rating, Pigweed (pigweed; [7]): 0; Plant response rating, Velvetleaf (velvetleaf; [4]): 80; Velvetleaf plant response rating (velvetleaf; [8]): 70; Plant response rating, Velvetleaf (velvetleaf; [7]): 10; Plant response rating, Blackgrass (blackgrass): 30; Blackgrass plant response rating (blackgrass): 20; Plant response rating, Wheat (wheat): 40; Wheat plant response rating (wheat): 30; Rice plant response rating (rice): 70; Sedge, Umbrella plant response rating [2]: 90; Ducksalad plant response rating (ducksalad): 80; Barnyardgrass plant response rating (barnyardgrass [3]): 60 |
| CCn1nc(C(C)(C)C)cc1C(=O)Nc1cccc(C(=O)OC)c1 [Compound 81] | 90 | 60 | 70 | 10 | 60 | 40 | 0 | 90 | 70 | 0 | 20 | 10 | 10 | 0 | 50 | 60 | 20 | 10 | 50 | 0 | Cocklebur plant response rating (cocklebur; [5]): 0; Plant response rating, Lambsquarters (lambsquarters; [7]): 0; Plant response rating, Morningglory (morningglory; [4]): 30; Morningglory plant response rating (morningglory; [8]): 0; Plant response rating, Morningglory (morningglory; [7]): 10; Plant response rating, Pigweed (pigweed; [4]): 90; Pigweed plant response rating (pigweed; [8]): 50; Plant response rating, Pigweed (pigweed; [7]): 20; Plant response rating, Velvetleaf (velvetleaf; [4]): 90; Velvetleaf plant response rating (velvetleaf; [8]): 80; Plant response rating, Velvetleaf (velvetleaf; [7]): 0; Plant response rating, Blackgrass (blackgrass): 20; Blackgrass plant response rating (blackgrass): 0; Plant response rating, Wheat (wheat): 40; Wheat plant response rating (wheat): 20; Rice plant response rating (rice): 60; Sedge, Umbrella plant response rating [2]: 80; Ducksalad plant response rating (ducksalad): 80; Barnyardgrass plant response rating (barnyardgrass [3]): 50 |
| C#CCOC(=O)c1cccc(NC(=O)c2cc(C(C)(C)C)nn2CC)c1 [Compound 84] | 40 | 0 | 20 | 0 | 60 | 50 | 0 | 100 | 20 | 0 | 50 | 0 | 20 | 0 | 10 | 0 | 10 | 0 | 60 | 0 | Plant response rating, Lambsquarters (lambsquarters; [7]): 0; Plant response rating, Morningglory (morningglory; [4]): 60; Morningglory plant response rating (morningglory; [8]): 30; Plant response rating, Morningglory (morningglory; [7]): 0; Plant response rating, Pigweed (pigweed; [4]): 100; Pigweed plant response rating (pigweed; [8]): 80; Plant response rating, Pigweed (pigweed; [7]): 0; Plant response rating, Velvetleaf (velvetleaf; [4]): 100; Velvetleaf plant response rating (velvetleaf; [8]): 60; Plant response rating, Velvetleaf (velvetleaf; [7]): 0; Plant response rating, Blackgrass (blackgrass): 10; Blackgrass plant response rating (blackgrass): 0; Plant response rating, Wheat (wheat): 30; Wheat plant response rating (wheat): 20; Rice plant response rating (rice): 0; Sedge, Umbrella plant response rating [2]: 70; Ducksalad plant response rating (ducksalad): 20; Barnyardgrass plant response rating (barnyardgrass [3]): 10 |
